# Test results reported in PMC11651181, “Discovery of 6α-Thiazolylcarboxamidonaltrexamine Derivative (NTZ) as a Potent and Central Nervous System Penetrant Opioid Receptor Modulator with Drug-like Properties for Potential Treatment of Opioid Use Disorder” (ACS Pharmacology & Translational Science, 2024).
# Structures can show the parent of a compound that is named as a salt. Where two headings read alike, the source gives them in different places.
# Legend:
# MOR = molecular target: T1, MOR (Mus musculus, UniProt P42866); experiment: MOR [35S]GTPγS functional assay; format: biochemical
# T1 construct: expressed in transfected cells; host or cells: CHO (MOR-CHO), membrane preparation
# T1 sequence (P42866 whole entry): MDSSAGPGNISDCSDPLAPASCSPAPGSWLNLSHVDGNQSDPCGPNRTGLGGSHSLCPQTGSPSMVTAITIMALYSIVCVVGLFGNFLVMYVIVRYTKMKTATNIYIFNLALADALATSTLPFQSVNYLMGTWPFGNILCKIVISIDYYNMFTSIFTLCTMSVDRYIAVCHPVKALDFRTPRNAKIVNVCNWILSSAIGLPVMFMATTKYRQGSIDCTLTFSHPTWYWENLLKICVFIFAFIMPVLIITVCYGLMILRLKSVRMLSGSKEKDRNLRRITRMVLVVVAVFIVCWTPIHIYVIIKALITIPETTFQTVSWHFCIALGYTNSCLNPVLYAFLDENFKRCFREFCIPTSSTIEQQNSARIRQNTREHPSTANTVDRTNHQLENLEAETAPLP
# Method: (§1) The [^35S]GTPγS functional assay was used to assess the efficacy of compounds at the MOR, KOR, and DOR. In this assay, 10 μg of MOR-CHO/KOR-CHO/DOR-CHO membrane protein was incubated in 500 μL of TME with 100 mM NaCl, 20 μM GDP, 0.1 nM [^35S]GTPγS, and varying concentrations of the compound for 1.5 h in a 30 °C water bath. Protein concentration was adjusted using the Bradford protein assay. […] After incubation, bound radioactivity was separated by filtration through GF/B glass fiber filters and measured by liquid scintillation counting. All assays were performed in duplicate and repeated at least three times. Net stimulated [35S]GTPγS binding was calculated as agonist-stimulated minus basal binding.
# DOR = molecular target: T2, DOR (Homo sapiens, UniProt P41143); experiment: DOR [35S]GTPγS functional assay; format: biochemical
# T2 construct: expressed in transfected cells; host or cells: CHO (DOR-CHO), membrane preparation
# T2 sequence (P41143 whole entry): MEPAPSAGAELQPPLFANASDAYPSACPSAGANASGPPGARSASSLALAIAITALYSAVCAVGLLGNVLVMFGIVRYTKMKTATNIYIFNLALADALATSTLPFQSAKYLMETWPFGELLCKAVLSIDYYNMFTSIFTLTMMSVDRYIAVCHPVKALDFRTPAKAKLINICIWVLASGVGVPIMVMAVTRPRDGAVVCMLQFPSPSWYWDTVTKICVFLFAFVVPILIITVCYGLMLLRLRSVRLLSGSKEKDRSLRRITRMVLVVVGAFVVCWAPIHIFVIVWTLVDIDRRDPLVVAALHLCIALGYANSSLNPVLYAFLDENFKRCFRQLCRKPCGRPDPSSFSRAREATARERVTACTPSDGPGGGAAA
# Method: as §1
# [1] = In vivo BBB-penetration studies (LC-MS/MS of brain and plasma); parameters: species or system mouse; conditions: 10 mg/kg s.c.; for Brain concentration / concentration at 5 min / concentration at 10 min / concentration at 30 min: n = 3, mean ± SD; for concentration at 5 min / concentration at 10 min / concentration at 30 min: subcutaneous
# Method: Swiss Webster mice (three mice each time point) were administered compound 6 (10 mg/kg, s.c.) or vehicle. At 5-, 10-, and 30 min time points post administration, the mice were euthanized by decapitation, and blood and brain samples were collected. Blood samples were centrifuged at 15,000 g for 10 min at 4 °C to isolate plasma. Brains were washed twice with saline before harvesting and stored in saline until homogenization. Both brain and plasma samples were kept at −80 °C until further analysis.
# Compound 6 was identified and quantified in mouse plasma and brain using a modified version of a previously established method, with naloxone-d5 as the internal standard.[20] In brief, compound 6 was extracted from both blood and brain using naloxone-d5 as the internal standard (ISTD) by a liquid/liquid extraction. Before extraction, brain tissue samples were homogenized at a ratio of one-part tissue to three-parts water. Seven-point calibration curves (10–1000 ng/mL or ng/g) were prepared for in plasma, and included drug free control, negative control (lacking internal standard, ISTD) for plasma and brain, and quality control samples in plasma and brain (30, 300, and 750 ng/mL or ng/g). […], used as the internal standard, was added at a concentration of 10 ng/mL to either 100 μL of blood or 400 μL for brain homogenate to each calibrator, control, or sample, excluding the negative control. To these samples 0.5 mL of saturated carbonate/bicarbonate buffer (1:1, pH 9.5) and 2.0 mL of chloroform: isopropanol (8:2) were added. The mixtures were vortexed, centrifuged and the top aqueous layer was removed. The organic layer was transferred to a clean test tube and evaporated to dryness under nitrogen. The residues were reconstituted in 80:20 methanol: water and transferred to autosampler vials for analysis. Chromatographic separation of compound 6 and naltrexone-d5 was performed using a Shimadzu Nexera X2 liquid chromatography system with a Zorbax XDB-C18 4.6 × 75 mm, 3.5-μm column (Agilent Technologies, Santa Clara, CA). The mobile phase consisted of water with 1 g/L ammonium formate and 0.1% formic acid (Phase A) and methanol (Phase B). The flow rate was maintained at 1 mL/min. The gradient started at 20% B, increased to 80% within 1 min, and was held for 1.5 min before returning to the initial conditions. Detection was carried out using a Sciex 6500 QTRAP system with an IonDrive Turbo V source for TurbolonSpray (Sciex, Ontario, Canada). The curtain gas flow rate set to 30 mL/min while the ion source gases 1 and 2 were set to 60 mL/min. The source temperature was maintained at 650 °C and the ionspray voltage was set at 5500 V. The declustering potential was […]. The following quantification and qualifying transition ions were monitored in positive multiple reaction monitoring (MRM) mode with collisions energies in parentheses: compound 6 455> 437 (26), 455 > 268 & (41); naloxone-d5 333> 212 (45), &333 > 315 (25). Retention times of compound 6 and naloxone-d5 were 1.81 and 1.69 min, respectively. The total run time was 4 min. Compound 6 concentration was determined by linear regression plot based on peak area ratios of the calibrators.
# CYP1A2 = molecular target: T3, CYP1A2 (Homo sapiens, UniProt P05177); experiment: Cytochrome P450 inhibition assay, CYP1A2; format: in vitro ADME
# T3 construct: Eurofins Panlabs, Inc. (contract laboratory)
# T3 sequence (P05177 1-516): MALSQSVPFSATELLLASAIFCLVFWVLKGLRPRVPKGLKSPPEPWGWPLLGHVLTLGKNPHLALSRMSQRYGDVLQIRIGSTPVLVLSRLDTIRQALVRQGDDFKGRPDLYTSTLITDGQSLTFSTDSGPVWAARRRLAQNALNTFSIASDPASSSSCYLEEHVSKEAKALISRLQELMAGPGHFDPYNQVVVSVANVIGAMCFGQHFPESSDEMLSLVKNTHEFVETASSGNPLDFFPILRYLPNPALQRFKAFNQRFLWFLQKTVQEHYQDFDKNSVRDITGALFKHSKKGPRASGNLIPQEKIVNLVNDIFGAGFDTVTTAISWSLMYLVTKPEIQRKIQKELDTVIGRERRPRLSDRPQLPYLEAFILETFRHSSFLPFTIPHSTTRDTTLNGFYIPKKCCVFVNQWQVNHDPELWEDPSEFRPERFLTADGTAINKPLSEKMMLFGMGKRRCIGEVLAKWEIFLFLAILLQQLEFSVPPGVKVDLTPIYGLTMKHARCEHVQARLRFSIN
# Method: (§2) The ADMET assessment including the hERG inhibitory activity, plasma protein binding, in vitro metabolic stability profile, CYP inhibitory effect and mutagenic evaluation were conducted by Eurofins Panlabs, Inc.[21],[61],[69]−[71]
# CYP2C9 = molecular target: T4, CYP2C9 (Homo sapiens, UniProt P11712); experiment: Cytochrome P450 inhibition assay, CYP2C9; format: in vitro ADME
# T4 construct: Eurofins Panlabs, Inc. (contract laboratory)
# T4 sequence (P11712 whole entry): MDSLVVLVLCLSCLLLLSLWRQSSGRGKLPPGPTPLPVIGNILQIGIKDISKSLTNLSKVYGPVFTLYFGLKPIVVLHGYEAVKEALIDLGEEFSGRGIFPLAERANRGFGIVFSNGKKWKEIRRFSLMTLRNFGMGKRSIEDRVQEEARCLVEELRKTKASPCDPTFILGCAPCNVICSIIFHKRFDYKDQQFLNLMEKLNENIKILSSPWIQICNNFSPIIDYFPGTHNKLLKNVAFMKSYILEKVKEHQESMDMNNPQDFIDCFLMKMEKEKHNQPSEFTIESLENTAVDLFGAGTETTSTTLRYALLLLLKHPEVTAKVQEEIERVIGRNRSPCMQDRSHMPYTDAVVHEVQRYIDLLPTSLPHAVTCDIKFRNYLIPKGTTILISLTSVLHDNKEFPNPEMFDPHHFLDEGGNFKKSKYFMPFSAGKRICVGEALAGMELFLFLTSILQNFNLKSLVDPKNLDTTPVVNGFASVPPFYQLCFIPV
# Method: as §2
# CYP3A4 = molecular target: T5, CYP3A4 (Homo sapiens, UniProt P08684); experiment: Cytochrome P450 inhibition assay, CYP3A4; format: in vitro ADME
# T5 construct: Eurofins Panlabs, Inc. (contract laboratory)
# T5 sequence (P08684 whole entry): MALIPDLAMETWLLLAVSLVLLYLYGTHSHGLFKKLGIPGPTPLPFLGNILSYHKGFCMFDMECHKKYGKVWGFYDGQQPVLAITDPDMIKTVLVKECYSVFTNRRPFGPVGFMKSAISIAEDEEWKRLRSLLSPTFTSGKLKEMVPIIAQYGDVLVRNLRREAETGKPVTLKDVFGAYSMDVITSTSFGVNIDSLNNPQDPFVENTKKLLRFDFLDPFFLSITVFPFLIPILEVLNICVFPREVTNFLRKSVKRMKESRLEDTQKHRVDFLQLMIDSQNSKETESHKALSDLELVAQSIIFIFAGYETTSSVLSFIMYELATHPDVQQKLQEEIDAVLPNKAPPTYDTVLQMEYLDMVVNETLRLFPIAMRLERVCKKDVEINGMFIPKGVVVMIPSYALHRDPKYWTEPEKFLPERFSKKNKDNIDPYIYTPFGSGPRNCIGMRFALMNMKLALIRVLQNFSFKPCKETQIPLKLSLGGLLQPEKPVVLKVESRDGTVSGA
# Method: as §2
# typical tester strains = experiment: Bacterial reverse mutation assay; conditions: up to 100 μM
# Method: as §2
smiles,measurement,setting,value
"O=C(N[C@H]1CC[C@@]2(O)[C@H]3Cc4ccc(O)c5c4[C@@]2(CCN3CC2CC2)[C@H]1O5)c1nccs1 [Compound 6, 17-Cyclopropylmethyl-3,14β-dihydroxy-4,5α-epoxy-6α-(2′-thiazolylcarboxamido)-morphinan hydrochloride]",EC50,MOR,2.16 ± 0.38 nM
same,Emax,"MOR; read-out: MOR [35S]GTPγS Binding %Emax of DAMGO, relative to 3 μM DAMGO, mean ± SEM",6 to 11%
same,MOR [35S]GTPγS Binding %Emax of DAMGO,"MOR; relative to 3 μM DAMGO, mean ± SEM",11.3 ± 1.30%
same,EC50,DOR,23.6 ± 4.29 nM
same,Emax,"DOR; relative to 3 μM SNC80, mean ± SEM, read-out: DOR [35S]GTPγS binding % Emax of SNC80",46.5 ± 2.17%
same,Decrease in the plasma levels over 30 min,[1],33%
same,Brain concentration,[1]; 5 min,0.187 ± 0.07 µg/g
same,Brain concentration,[1]; 10 min,0.235 ± 0.06 µg/g
same,Brain concentration,[1]; 30 min,0.264 ± 0.05 µg/g
same,Kp at 5 min,"[1]; Swiss Webster, mouse, brain and plasma, sc, 5 min, read-out: Brain-to-Plasma ratio",0.102
same,Kp at 10 min,"[1]; Swiss Webster, mouse, brain and plasma, sc, 10 min, read-out: Brain-to-Plasma ratio",0.173
same,Kp at 0.5 h,"[1]; Swiss Webster, mouse, brain and plasma, sc, 30 min, read-out: Brain-to-Plasma ratio",0.217
same,concentration at 5 min,"[1]; Swiss Webster, mouse, brain, 5 min, read-out: Brain concentration",187 ng/g
same,concentration at 10 min,"[1]; Swiss Webster, mouse, brain, 10 min, read-out: Brain concentration",235 ng/g
same,concentration at 30 min,"[1]; Swiss Webster, mouse, brain, 30 min, read-out: Brain concentration",264 ng/g
same,concentration at 5 min,"[1]; Swiss Webster, mouse, plasma, 5 min, read-out: Plasma concentration",1820 ± 280 ng/mL
same,concentration at 10 min,"[1]; Swiss Webster, mouse, plasma, 10 min, read-out: Plasma concentration",1360 ± 210 ng/mL
same,concentration at 30 min,"[1]; Swiss Webster, mouse, plasma, 30 min, read-out: Plasma concentration",1220 ± 330 ng/mL
same,inhibition at 10 µM,CYP1A2; 1.0E-05 M,7.4%
same,inhibition at 100 nM,CYP1A2; 1.0E-07 M,11.4%
same,inhibition at 10 µM,CYP2C9; 1.0E-05 M,16.3%
same,inhibition at 100 nM,CYP2C9; 1.0E-07 M,0.6%
same,inhibition at 10 µM,CYP3A4; 1.0E-05 M,23.5%
same,inhibition at 100 nM,CYP3A4; 1.0E-07 M,10.1%
same,"Mutagenic potential, in words",typical tester strains,no mutagenic potential
